Values joined by “and” are separate entries in the source; they are usually repeats but may differ in a detail not shown here. Identical values can stand only once.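 Where inhibition never reached the appropriate level, the endpoint shown equals the highest concentration tested. Otherwise, values were interpolated linearly from a five-concentration, 48-hour dose response in 96-well plates. At the GI50, growth is halved. Definition used: TGI = concentration required for complete inhibition of growth.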
What was measured:
Assay in all cases: growth of human tumour cells (NCI), 48 h
BT-549 breast = tested on: BT-549 breast
CAKI-1 renal = tested on: CAKI-1 renal
M14 melanoma = tested on: M14 melanoma
NCI-H460 lung = tested on: NCI-H460 lung
SK-MEL-2 melanoma = tested on: SK-MEL-2 melanoma

Row | SMILES | TGI (BT-549 breast) | TGI (CAKI-1 renal) | TGI (M14 melanoma) | TGI (NCI-H460 lung) [µM] | TGI (SK-MEL-2 melanoma) [µM] | GI50 (BT-549 breast) | GI50 (CAKI-1 renal) | GI50 (SK-MEL-2 melanoma)
1 | Nn1c(Nc2ccc(S(=O)(=O)Nc3ncccn3)cc2)nnc(/C=C/c2c(O)ccc3ccccc23)c1=O | 60 µM | 89.9 µM | 78.2 µM | 69.2 | 51.1 |  |  | 
2 | C[C@]12CCC3C4=C(CCC3C1CCC2=O)C(=O)[C@H]1O[C@H]1C4=O (stereo not given in full) | 4.83 µM | 4.88 µM | 10.2 µM | 23.9 | 26.5 |  |  | 
3 | Oc1ccccc1CNCc1nc2ccccc2[nH]1 | > 100 µM | > 100 µM | > 100 µM |  | > 100 |  |  | 
4 | Cc1ccc(-c2csc(=Nc3ccccc3)n2NC(=O)c2ccncc2)cc1 | > 91.8 µM | > 100 µM | > 100 µM | > 100 | 96.1 |  |  | 
5 | CN(C)CCNS(=O)(=O)c1ccc(N)cc1 | > 100 µM | > 100 µM | > 100 µM | > 100 | 31.9 |  |  | 
6 | Cc1cc(-c2nc3ccc(F)cc3s2)ccc1NC(=O)[C@H](C)N | 26.8 µM | 22.1 µM | 3.94 µM | 6.09 | 25.2 |  |  | 
7 | Cc1ccccc1C(=N)c1ccccc1Cc1cccc2ccccc12 | 92 µM | > 100 µM | > 100 µM | 38.6 | 35.1 |  |  | 
8 | CC(=O)c1c2c(c3ccccc3c1O)O[C@@H]1OCC[C@H]21 | > 100 µM | > 100 µM | > 100 µM | > 100 | > 100 |  |  | 
9 | CC1=Nc2ccccc2OC(C)=C1N=Nc1ccc2nc(C)[nH]c2c1 | > 100 µM | > 100 µM | > 100 µM | > 100 | > 100 |  |  | 
10 | [N-]=[N+]=NC(c1ccccc1)(c1ccccc1)c1ccccc1 | 37.7 µM | 46.7 µM | 35.5 µM | 33 | 29.3 |  |  | 
11 | Oc1ccc(-c2nc3ccc(Br)cc3s2)cc1 | 44.7 µM | 33.7 µM | 39.6 µM | 52.8 | 33.3 |  |  | 
12 | COc1cccc(Nc2nc(-c3cccs3)nc3cc(OC)c(OC)cc23)c1 | 86 µM | 73.4 µM | 82.2 µM | 79.4 | > 100 |  |  | 
13 | CC1CN(C)c2ccccc2N=C1NN (stereo not given) | > 100 µM | > 100 µM | > 100 µM | > 100 | > 100 |  |  | 
14 | Cc1ccc(-c2cc(-c3ccco3)c(C#N)c(=S)n2C2OC(CO)C(O)C(O)C2O)cc1 (stereo not given) | 78.5 µM and > 100 µM | 46.9 µM and > 100 µM | 68.2 µM and 75.7 µM | > 100 | > 100 | 18.2 µM and 57.3 µM | 17.6 µM and > 100 µM | 39.3 µM and > 100 µM
15 | COc1ccc(-n2c(C)nc3ccc(NC(=S)Nc4ccccc4)cc3c2=O)cc1 | > 100 µM | > 100 µM |  | > 100 | > 100 |  |  | 
16 | C=C1CCN2CC[C@@H](OC(=O)/C(C)=C\C)[C@@H]12 |  | > 100 µM | > 100 µM | > 100 | > 100 |  |  | 
17 | CC(C)=CCC[C@@H](C)c1c(O)c(O)c(C)c2nccnc12 | > 100 µM | > 90.3 µM | > 100 µM | > 100 | 58 |  |  | 

Row | SMILES | TGI (BT-549 breast) | TGI (CAKI-1 renal) | TGI (M14 melanoma) | TGI (NCI-H460 lung) [µM] | TGI (SK-MEL-2 melanoma) [µM] | GI50 (BT-549 breast) | GI50 (CAKI-1 renal) | GI50 (SK-MEL-2 melanoma)
18 | Nc1nccc(-c2c[nH]c3cc(Br)ccc23)n1 | > 100 µM | 35 µM | 43.9 µM | > 100 | 47.2 |  |  | 
19 | N[C@@H](CCC(=O)NCP(=O)(O)O)C(=O)O | > 100 µM |  |  | > 100 | > 100 |  |  | 
20 | CCCCCC1=CC(=O)C1(Cl)Cl | 56.8 µM | 23.3 µM | 45.6 µM | > 61.2 | 47.7 |  |  | 
21 | O=c1[nH]c(=S)[nH]c2c1C(c1ccc([N+](=O)[O-])cc1)c1c([nH]c(=S)[nH]c1=O)O2 | > 100 µM | > 100 µM | > 100 µM | > 100 | > 100 |  |  | 
22 | CC1(C)O[C@H]2OC(CO[Si](C)(C)C(C)(C)C)C(N=[N+]=[N-])[C@H]2O1 (stereo not given in full) | 36.7 µM | 42.5 µM | 43.9 µM | 43.7 | 32 |  |  | 
23 | O=[N+]([O-])c1ccc2[nH]nc(OCc3ccccc3Cl)c2c1 |  | > 100 µM | > 100 µM | > 100 | 90.6 |  |  | 
24 | C(=C(c1ccc(OC2CCCCO2)cc1)c1ccc(OC2CCCCO2)cc1)c1ccccc1 (stereo not given) | 1.5 µM | 1.92 µM | 2 µM | 1.79 | 2.77 |  |  | 
25 | CCN(CC)CCNC(=O)c1cc2cc(NC(=O)c3cc4cc([N+](=O)[O-])ccc4[nH]3)ccc2[nH]1 | > 100 µM | > 100 µM | > 100 µM | > 100 | > 100 |  |  | 
26 | COC(=O)C1CC(C=[N+](C)C)=C(SC)N1C(=O)OCc1ccccc1 (stereo not given) | > 100 µM | > 100 µM | > 100 µM | > 100 | > 100 |  |  | 
27 | Cn1c(=O)c2c(nc3n2CC(C(=O)O)N3)n(C)c1=O (stereo not given) | > 100 µM | > 100 µM | > 100 µM | > 100 | > 100 |  |  | 
28 | N#CC(Cc1ccccc1)N(CCC1=CCCCC1)C(c1ccccc1)c1ccccc1 (stereo not given) | > 100 µM | > 100 µM | > 100 µM | > 100 | > 100 |  |  | 
29 | Nc1c(-c2ccc(Cl)c(Cl)c2)c2ccc([N+](=O)[O-])cc2c(=O)n1-c1nc2ccccc2s1 | 21.7 µM | > 39.7 µM | > 36.1 µM | > 100 | 14.4 |  |  | 
30 | Cc1oc2c(cc(O)c3cc(O)ccc32)c2cccc1-2 | 44 µM | > 100 µM | > 100 µM | > 100 | > 100 |  |  | 
31 | CCOP(=O)(OCC)C(F)(F)c1ccc(CC(NC(=O)OC(C)(C)C)C(=O)O)cc1 (stereo not given) | > 10 µM | > 10 µM | > 10 µM | > 10 |  |  |  | 
32 | CC(=O)Nn1c(=S)[nH]c2ccccc21 | > 100 µM | > 100 µM | > 100 µM | > 100 | > 100 |  |  | 
33 | c1ccc2c3[nH]c(c2c1)=Nc1ccc(cc1)-c1nc2cc(ccc2o1)N=c1[nH]c(c2ccccc12)=Nc1ccc2nc(oc2c1)-c1ccc(cc1)N=3 | > 100 µM | > 100 µM | > 100 µM | > 100 |  |  |  | 
34 | C=CC1(CC/C(=C\[N+](=O)[O-])c2ccc(OC)c(OC)c2)OCC(C)(C)CO1 | 31.1 µM | 52.9 µM | 39.6 µM | 55 | 37.7 |  |  | 

From PubChem BioAssay (NCI)
